Legend:
[1] = molecular target: T1, Metabotropic glutamate receptor 5 (Rattus norvegicus, UniProt P31424); assay: Displacement of [3H]M-MPEP from mGluR5 in Sprague-Dawley rat brain P2 membrane after 45 mins by beta counting; format: tissue-based
[2] = Lipophilicity, log P after 15 mins by shake-flask method; format: physicochemical; settings: octanol/water
[3] = molecular target: Metabotropic glutamate receptor 5 (Rattus norvegicus) (UniProt P31424); assay: Binding affinity to mGluR5 ligand binding site 2 in Sprague-Dawley rat brain P2 membrane assessed per mg of protein after 45 mins by gamma counting; format: tissue-based; settings: tested as the 18F-labelled form
[4] = molecular target: Metabotropic glutamate receptor 5 (Rattus norvegicus) (UniProt P31424); assay: Binding affinity to mGluR5 ligand binding site 1 in Sprague-Dawley rat brain P2 membrane assessed per mg of protein after 45 mins by gamma counting; format: tissue-based; settings: tested as the 18F-labelled form
[5] = molecular target: T1, Metabotropic glutamate receptor 5; assay: Binding affinity to mGluR5 ligand binding site 2 in Sprague-Dawley rat brain P2 membrane after 45 mins by gamma counting; format: tissue-based
[6] = molecular target: T1, Metabotropic glutamate receptor 5; assay: Binding affinity to mGluR5 ligand binding site 1 in Sprague-Dawley rat brain P2 membrane after 45 mins by gamma counting; format: tissue-based

T1 sequence (P31424 whole entry): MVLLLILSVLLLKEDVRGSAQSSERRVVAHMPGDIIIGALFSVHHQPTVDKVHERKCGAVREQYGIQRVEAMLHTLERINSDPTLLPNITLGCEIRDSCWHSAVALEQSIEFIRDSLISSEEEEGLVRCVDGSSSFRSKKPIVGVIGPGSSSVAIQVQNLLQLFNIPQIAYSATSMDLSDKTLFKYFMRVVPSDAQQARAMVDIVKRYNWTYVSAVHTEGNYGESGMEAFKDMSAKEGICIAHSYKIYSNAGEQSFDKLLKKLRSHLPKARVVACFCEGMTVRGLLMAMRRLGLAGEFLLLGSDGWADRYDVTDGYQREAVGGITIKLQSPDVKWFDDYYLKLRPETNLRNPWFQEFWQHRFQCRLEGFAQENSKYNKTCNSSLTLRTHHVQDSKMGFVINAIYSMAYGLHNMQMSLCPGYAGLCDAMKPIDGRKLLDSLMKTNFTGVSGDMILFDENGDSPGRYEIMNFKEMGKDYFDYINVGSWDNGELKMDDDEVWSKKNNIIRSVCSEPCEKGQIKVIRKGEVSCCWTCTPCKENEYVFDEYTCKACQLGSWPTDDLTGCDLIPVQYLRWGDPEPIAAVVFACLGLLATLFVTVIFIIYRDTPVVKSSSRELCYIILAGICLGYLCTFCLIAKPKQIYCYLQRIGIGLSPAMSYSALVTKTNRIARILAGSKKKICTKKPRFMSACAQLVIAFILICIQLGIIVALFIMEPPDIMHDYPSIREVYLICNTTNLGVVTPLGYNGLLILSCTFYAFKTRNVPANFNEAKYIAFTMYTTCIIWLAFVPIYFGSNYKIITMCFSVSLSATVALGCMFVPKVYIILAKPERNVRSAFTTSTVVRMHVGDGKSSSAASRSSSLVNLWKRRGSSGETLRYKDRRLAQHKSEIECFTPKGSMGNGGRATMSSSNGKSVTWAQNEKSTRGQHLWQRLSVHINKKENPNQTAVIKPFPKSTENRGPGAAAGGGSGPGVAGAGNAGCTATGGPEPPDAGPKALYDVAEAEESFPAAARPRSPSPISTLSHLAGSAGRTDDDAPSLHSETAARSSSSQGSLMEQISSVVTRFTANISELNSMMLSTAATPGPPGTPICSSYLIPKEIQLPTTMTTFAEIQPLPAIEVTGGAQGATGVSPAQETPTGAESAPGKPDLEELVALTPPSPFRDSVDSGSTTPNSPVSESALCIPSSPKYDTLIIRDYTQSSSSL
Metabotropic glutamate receptor 5 (Rattus norvegicus), sequence (P31424 21-1203 limits assumed): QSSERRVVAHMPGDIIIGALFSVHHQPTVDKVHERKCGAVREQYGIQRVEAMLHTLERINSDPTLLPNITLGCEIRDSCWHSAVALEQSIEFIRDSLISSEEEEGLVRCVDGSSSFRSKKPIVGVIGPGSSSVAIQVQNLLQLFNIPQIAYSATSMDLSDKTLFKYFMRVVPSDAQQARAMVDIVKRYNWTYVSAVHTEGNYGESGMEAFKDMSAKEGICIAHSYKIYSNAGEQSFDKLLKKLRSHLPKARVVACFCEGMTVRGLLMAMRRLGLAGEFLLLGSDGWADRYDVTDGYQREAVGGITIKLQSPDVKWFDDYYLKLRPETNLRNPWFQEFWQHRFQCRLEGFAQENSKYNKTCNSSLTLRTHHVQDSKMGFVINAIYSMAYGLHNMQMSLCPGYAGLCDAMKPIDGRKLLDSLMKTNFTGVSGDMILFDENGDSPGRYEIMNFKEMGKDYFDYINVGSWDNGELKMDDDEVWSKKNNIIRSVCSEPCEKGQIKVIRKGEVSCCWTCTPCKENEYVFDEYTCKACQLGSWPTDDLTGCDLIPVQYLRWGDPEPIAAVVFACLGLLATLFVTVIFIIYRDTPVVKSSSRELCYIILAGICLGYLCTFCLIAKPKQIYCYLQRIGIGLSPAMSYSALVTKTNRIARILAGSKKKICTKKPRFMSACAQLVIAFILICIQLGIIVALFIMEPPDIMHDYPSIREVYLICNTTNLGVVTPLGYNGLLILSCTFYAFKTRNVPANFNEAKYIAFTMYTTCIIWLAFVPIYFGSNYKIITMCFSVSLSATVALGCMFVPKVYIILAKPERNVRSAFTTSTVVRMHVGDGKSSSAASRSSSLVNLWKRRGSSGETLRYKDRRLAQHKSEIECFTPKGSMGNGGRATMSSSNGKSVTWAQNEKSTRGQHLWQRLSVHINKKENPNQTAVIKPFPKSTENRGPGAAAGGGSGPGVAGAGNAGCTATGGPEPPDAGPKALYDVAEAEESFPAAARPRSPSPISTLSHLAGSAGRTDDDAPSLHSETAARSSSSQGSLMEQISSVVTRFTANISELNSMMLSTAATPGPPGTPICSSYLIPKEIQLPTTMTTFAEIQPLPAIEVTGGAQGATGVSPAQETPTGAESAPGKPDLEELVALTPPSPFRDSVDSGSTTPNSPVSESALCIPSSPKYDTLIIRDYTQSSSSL

Row | Compound | Ki [1] | also measured
1 | FCCOCO/N=C1/C=C(C#Cc2ccccn2)CCC1 | 8.41 nM | –
2 | Fc1cccc(O/N=C2\C=C(C#Cc3ccccn3)CCC2)n1 | 44 nM | –
3 | N#Cc1ccc(F)cc1O/N=C1/C=C(C#Cc2ccccn2)CCC1 | 73.4 nM | –
4 | Fc1cccc(O/N=C2/C=C(C#Cc3ccccn3)CCC2)n1 | 9.15 nM | –
5 | FCCOCCO/N=C1/C=C(C#Cc2ccccn2)CCC1 | 3.8 nM | logP at 0.25 h [2]: 1.7; Bmax [3]: 4 pmol; Bmax [4]: 470 fmol
6 | CO/N=C1/C=C(C#Cc2cccc(C)n2)CCC1 | 4.4 nM | logP at 0.25 h [2]: 2.4
7 | N#Cc1ccc(O/N=C2/C=C(C#Cc3ccccn3)CCC2)cc1F | 56.1 nM | –
8 | CO/N=C1/C=C(C#Cc2ccccn2)CCC1 | 2.2 nM | –
9 | FCCCOCO/N=C1/C=C(C#Cc2ccccn2)CCC1 | 5.42 nM | –
10 | Fc1cccnc1O/N=C1/C=C(C#Cc2ccccn2)CCC1 | 4.01 nM | –
11 | Cc1cccc(C#CC2=C/C(=N/Oc3cccc(F)n3)CCC2)n1 | 46.8 nM | –
12 | CO/N=C1/C=C(C#Cc2ccncc2)CCC1 | 54.8 nM | –
13 | CO/N=C1/C=C(C#Cc2cccnc2)CCC1 | 252 nM | –
14 | N#Cc1ccc(O/N=C2\C=C(C#Cc3ccccn3)CCC2)cc1F | 49.8 nM | –
15 | Cc1cccc(C#CC2=C/C(=N/OCCOCCF)CCC2)n1 | 26.8 nM | logP at 0.25 h [2]: 2.1
16 | [18F]CCOCCO/N=C1/C=C(C#Cc2ccccn2)CCC1 | – | Kd [5]: 13.7 nM; Kd [6]: 0.6 nM

Source: ChEMBL document CHEMBL1157763, “Structure-activity relationships of fluorinated (E)-3-((6-methylpyridin-2-yl)ethynyl)cyclohex-2-enone-O-methyloxime (ABP688) derivatives and the discovery of a high affinity analogue as a potential candidate for imaging metabotropic glutamate recepors subtype 5 (mGluR5) with positron emission …” (J Med Chem, 2010)
